# Assay results taken from patent US20240423944A1, “USE OF LAURYL GALLATE (LG) AS A HEMOSTATIC AGENT” (CENTRE DE BIOTECHNOLOGIE DE SFAX (CBS), priority 2021, published 2024).
# Tests used:
# [1] = system: platelets; conditions: Hongyan and Richard, 2004; cited from earlier work
# [2] = system: washed human platelets; test: Washed platelet aggregation by turbidimetry (light transmission aggregometer); assay type: cell-based
# Protocol: Healthy volunteers had abstained from Aspirin and others anti-inflammatory drugs for at least […] prior to blood sampling. Written informed consent was obtained from all donors. Blood samples were collected into sodium citrate 3.2% and centrifuged for 10 min at 190 g. The supernatant thus obtained was the platelet-rich plasma (PRP).
# Washed platelets were prepared from centrifuged PRP previously supplemented with rostacyclin (0.5 μM) to avoid platelet activation. The pellet was suspended in buffer A (pH 6.8) containing 140 mM NaCl, 5 mM KCl, 5 mM KH2PO4, 1 mM MgSO4, 10 mM N-2-hydroxyethylpiperazine-N′-2-ethanesulfonic acid, 5 mM glucose and 0.35% bovine serum albumin (w/v). The same buffer containing 1 mM CaCl2 and apyrase but without BSA (adjusted to pH 7.4) was added to the final suspension to reach 2×10^8 platelets/ml.
# Different concentrations of LG were added to 270 μl of PRP or washed platelets from an initial concentration of 250 mM. Platelet aggregation was recorded using a light transmission aggregometer (SD Medical). The percentage of transmittance of PRP or washed platelets was recorded as 0%, and that of the appropriate PPP or buffer was recorded as 100% respectively. Each condition was repeated for many healthy volunteers. Platelets treated with DMSO serves as negative control. Potentiation between low doses of LG and collagen or TRAP to aggregate platelets was also determined.
# [3] = system: p38 MAPK; test: Western blotting of p38 MAPK phosphorylation (Thr180/Tyr182); assay type: cell-based, human
# Protocol: (§1) Washed platelets were treated with LG (LC and HC) or DMSO. Aliquots were taken at 0, 2.5, 5 and 10 min, lysed with sample buffer and boiled. Proteins were loaded on to sodium dodecyl sulfate 10% polyacrylamide gel and, after electrophoresis, transferred to a nitrocellulose membrane. […] Phospho antibodies were diluted in TBS-Tween 5%-BSA (w/v) and incubated overnight and the others for 2 h. After washing, each blot was incubated with the corresponding horseradish peroxidase-conjugated anti-mouse or anti-rabbit. Immunoblots were developed using Super signal chemiluminescent substrate (Pierce, Rockford, IL) and analyzed with chemidoc Imaging system (Biorad).
# [4] = system: animal viruses; conditions: Hurtado et al, 2008; cited from earlier work
# [5] = system: fungi; conditions: Kubo et al, 2003; cited from earlier work
# [6] = system: washed human platelets; test: Calcium mobilization with CalciFluor 8-AM and flow cytometry; assay type: cell-based
# Protocol: Platelet calcium flux was adapted from the work described by (Monteiro et al. 1999). Washed platelets re-suspended at 10^8/ml in platelet wash buffer were incubated with the calcium indicator dyes Calcifluor 8-AM (R&D system) at 5 μM and Pluronic F-127 0.02% v/v (Sigma Aldrich) for 30 min at 37° C. The platelets were washed twice with platelet wash buffer, re-suspended in Tyrode's buffer containing EGTA (1 mM) or BAPTA-AM (10 μM). Changes in cytosolic calcium concentration were associated with increased or decreased fluorescence emission of Calcifluor 8-AM (emission wavelengths of 500-570 nm). These changes were analyzed using flow cytometry BD LSRII Fortessa. Results were expressed in fold increased Median Fluorescence. The determination of internal calcium concentration in platelet was described by Grynkiewicz et al. (1985).
# [7] = system: Src kinases; test: Western blotting of Src kinase cleavage; assay type: cell-based, human
# Protocol: as §1
# [8] = system: αIIbβ3 integrin; test: Flow cytometry of αIIbβ3 activation with PAC-1 antibody; assay type: cell-based, human
# Protocol: (§2) Washed platelets were pre-incubated with LG or DMSO for 5 and 10 min at 37° C. Samples were then incubated for 15 min at room temperature in the dark with anti-CD62P, anti-CD63 or monoclonal antibody PAC-1. This last recognize and binds only to the active form of integrin αIIbβ3 complex. Analysis of respective protein was performed using a FACS-Verse cytometer BD Biosciences). Platelets were identified on the basis of their Forward Scatter and Side Scatter properties.
# [9] = system: phosphatidylserine (PS); test: Phosphatidylserine exposure by annexin V binding (flow cytometry); assay type: cell-based, human; conditions: LG 0.05 mM
# Protocol: For phosphatidylserine exposure, washed platelets were pre-incubated with LG 0.05 mM or DMSO for 5 min at 37° C. Dilute the activated or non-activated sample with the 1× binding buffer provided in the kit to a final volume of 100 μl and add 5 μl of Annexin V AF647 (Clinisciences) for 15 min at 37° C. in the dark. The binding reaction is stopped with 500 ill of 1× binding buffer (Ramstrom 2010). Analysis was performed using LSR Fortessa cytometer (BD Biosciences).
# [10] = system: washed platelets from healthy donors; test: Measurement of LDH leakage from washed platelets; assay type: cell-based, human; conditions: low doses of LG 0.1 mM), 10 min
# Protocol: Washed platelets from healthy donors were treated with different doses of LG or control (DMSO) for 10 minutes at 37° C. Following, platelets were pelleted by centrifugation at 1800×g for 3 min. Supernatants were used to detect Lactate dehydrogenase (LDH) release by colorimetric method (Thermo Fisher Scientific), according to the manufacturer's protocol. The assay was performed in endpoint time of increased of formazan absorbance at 680 nm for 30 min. Maximal LDH leakage was obtained with lysis buffer. Results, expressed as percentage of LDH leakage are mean±SEM (n=6) (** p<0.01, *** p<0.001 according to Kruskal-Wallis test).
# [11] = system: human whole blood; test: Thrombus formation on immobilized collagen under flow conditions; assay type: cell-based; conditions: LG 0.05 mM
# Protocol: This method was performed as previously described (Gratacap et al, 2009). Briefly, biochips with micro-capillaries (Vena8Fluoro+®, Cellix) were coated with collagen type I. Epi-fluorescence microscope (Axio Observer; Carl Zeiss) allowed direct visualization of platelet adhesion and aggregation which was recorded with ORCA-R2 camera (Hamamatsu). Whole blood was collected into 13.6 UI/m1 lithium heparinate and platelets were labeled with DIOC6(Life Technologies, 2 μM, 10 min at 37° C.) LG (0.05 mM) was then added to blood just prior to injection through a micro-capillary at shear rate of 1500 s^−1. Thrombus formation was visualized with a 40× long working distance objective in real time. The range was fixed to 80 μm and the interval to 1.5 μm. The acquisition rate was chosen at one frame every 30 sec divided into two positions. Quantification of surface coverage was performed off-line using ImageJ software.
# [12] = system: CD63; test: Flow cytometry of dense granule secretion marker CD63; assay type: cell-based, human; conditions: following addition of LG
# Protocol: as §2
# [13] = system: Gram-positive bacteria like Bacillus subtilis or Streptococcus mutans; conditions: cited from earlier work
# [14] = system: tumoral cell lines; conditions: Ortega et al, 2003; cited from earlier work
# [15] = system: Wistar rats; test: Rat tail bleeding time; assay type: in vivo
# Protocol: Wistar rats of either gender weighing between 200 and 250 g were purchased from the Central Pharmacy of Tunisia. Animal handling conforms to the European Convention (CE. no. 123). Animals were fed a standard chow diet and had free access to water. They were housed five rats in a cage (0.12 m^2). Bleeding time was measured by transection of the tail, 1 cm from the tip, of phenobarbital anesthetized rats (25 mg/kg. i.p). Immediately after transection, the tail was dipped for 5 seconds into LG solution (5, 50, or 100 mg/ml of LG dissolved in ethanol) or vehicle (ethanol) and then placed carefully on Whatman paper. Blood was allowed to drop on filter paper which was moved gently every 30 seconds until no more blood was dropped. […] The bleeding time was also determined for a lot of rats not treated with any solution (control) and for another treated with ethanol to test the effect of the solvent. Tranexamic acid (100 mg/ml) was used as a standard anti-hemorrhagic drug under the same conditions. Each condition was repeated for six rats.
# [16] = system: CD62-P (P-selectin); test: Flow cytometry of α-granule secretion marker CD62-P; assay type: cell-based, human
# Protocol: as §2
# [17] = system: Akt; test: Western blotting of Akt phosphorylation (Ser473); assay type: cell-based, human
# Protocol: as §1
# [18] = system: washed platelets from healthy donors; test: Scanning electron microscopy of platelets; assay type: cell-based, human; conditions: 10 min, non-shaking
# Protocol: Platelets are treated with TRAP 25 μM, LG (LC and HC) during 10 minutes. They were fixed in 2.5% glutaraldehyde in 0.1 M Sorensen phosphate buffer (pH 7.4) for at least 1 h at 37° C. After sedimentation, the pellets were re-suspended in water and made to adhere on poly-lysine coated glass coverslips. Platelets were then dehydrated in a graded ethanol series and dried by critical point drying with a Leica EM CPD 300. The samples were coated with 6 nm Platinium on a Leica EM Med 020 before being examined on a FEI Quanta 250 FEG scanning electron microscope, at an accelerating voltage of 5 kV (Valet 2021).
molecule,measurement,setting,value
CCCOC(=O)c1cc(O)c(O)c(O)c1 [propyl gallate],platelet aggregation,[1],induce platelet aggregation
"CCCCCCCCCCCCOC(=O)c1cc(O)c(O)c(O)c1 [LG, Dodecyl 3,4,5-trihydroxybenzoate]",maximal platelet aggregation,"[2]; LG 0.05 mM alone, washed human platelets, fast and stable",~80%
same,maximal platelet aggregation,"[2]; high concentrations of LG (0.75 mM), slow response",~50%
same,shape of dose-response of platelet aggregation,"[2]; increasing concentrations, first peak 0.05 mM, decrease until 0.2 mM, plateau 0.75 to 1 mM",non-monotonic dose-response
same,p38 MAPK phosphorylation,[3]; LG 0.05 mM,rapid activation
same,p38 MAPK activation,[3]; LG 0.75 mM,at later times
same,antiviral activity,[4],potent antiviral activity
same,antifungal activity,[5],does not have antifungal activity
same,cytoplasmic free calcium concentration,"[6]; LG 0.05 mM, after 2.5 min",230 ± 25 nM
same,free cytosolic calcium,"[6]; LG 0.75 mM, at 0.5 min",105 ± 15 nM
same,Src-kinase cleavage,"[7]; LG 0.75 mM, substantial at 10 min",induced a cleavage of Src-kinase
same,Src-kinase cleavage,[7]; low dose of LG (0.05 mM),no impact
same,"activation of αIIbβ3, lower than that induced by 50 μM TRAP",[8]; LG 0.05 mM versus 50 μM TRAP,50%
same,expression of the active form of the fibrinogen receptor αIIbβ3,[8]; particularly at 0.05 mM,significant increase
same,exposure of PS on the platelet surface (annexin V binding),[9],significant exposure
same,LDH release from platelets,[10],no significant LDH release
same,surface covered by platelets,"[11]; collagen matrix, arterial shear rate",significantly increased
same,thrombus volumes compared to control,"[11]; collagen-coated microcapillaries, shear rate 1500 s^−1",significantly increased
same,time to capillary occlusion,"[11]; in several experiments, recording 300 s",< 300 s
same,plasma membrane expression level of CD63,[12],significantly increased
same,antibacterial activity,[13],antibacterial activity
same,anti-proliferative and pro-apoptotic activity,[14],anti-proliferative and pro-apoptotic activity
same,efficiency on bleeding time compared with tranexamic acid,[15]; LG 50 mg/ml versus tranexamic acid 100 mg/ml in ethanol,significantly more efficient
same,tail bleeding time,"[15]; tail dipped 5 seconds, 50 mg/ml LG in ethanol",dramatically reduced
same,expression of CD62-P on the plasma membrane,[16]; LG 0.05 mM,markedly increased
same,expression of CD62-P on the plasma membrane,[16]; LG 0.75 mM,markedly increased
same,α-granule secretion intensity compared with 50 μM TRAP,[16]; versus 50 μM TRAP,slightly lower
same,Akt phosphorylation,[17]; LG 0.05 mM,rapid activation
same,Akt activation,[17]; LG 0.75 mM,at later times
same,platelet morphology,[18]; LG 0.05 mM,induced platelet shape change and filopodia formation
same,platelet morphology,[18]; LG 0.75 mM,membrane structure was strongly modified with a grainy appearance and apparent pores formation
collagen [reference compound],platelet aggregation by agonist alone,[2]; collagen 0.15 μg/ml alone,unable to trigger detectable platelet aggregation
